Measurements published in patent US20250120932A1, “PHARMACEUTICAL COMPOSITION” (NEUROPRO THERAPEUTICS, INC., priority 2021, published 2025).

Assay: Pharmacokinetic study in cynomolgus monkeys after oral (nasogastric) gavage, sublingual and intravenous administration
Format: in vivo
Details: cynomolgus monkey, plasma, Plasma Bumetanide Dibenzylamide concentration, monkey; for concentration at 0.5 h: 0.50 h
Experimental: A pharmacokinetic study was done in cynomolgus monkeys following single oral (nasogastric) gavage, sublingual, and intravenous administration. […] Calibration curves, blanks, and analytical QCs were prepared in monkey plasma (K2EDTA). The extracts were evaporated to dryness, reconstituted, and then analyzed by LC-MS/MS. The calibration range was 0.250-250 ng/mL for both analytes.
If the criteria for either the calibration curve or the analytical QCs were not met, the analytical run was rejected. […] No deviations were found during the bioanalytical phase of the study conducted by Origin. Calibration curves were derived from the individual analyte to internal standard peak area ratios using the least squared regression of the ratio versus the nominal concentration of the calibration standard, prepared in duplicate. The regression was then used to back-calculate the concentration of each calibration standard, QC sample and study sample. […] Analyst® Software Version 1.6.3 (Applied Biosystems-MDS Sciex), operated with Windows® (Microsoft), was used for instrument control, data acquisition, and peak integrations. Peak area ratios, standard curve regressions, and sample concentration/accuracy values were calculated with Analyst® Software Version 1.6.3. Other results (e.g., mean statistics) were calculated with Excel® (Microsoft).
There was no apparent sex difference for the second formulation. […] A fourth formulation comprising the composition B listed in Table 54 was also administered in monheys.

[1] = both sexes, oral, 30 mg/kg, Mean, NG 30 mg/kg, First Formulation (Form 1), N=4
[2] = both sexes, oral, 30 mg/kg, Mean, NG 30 mg/kg, Second Formulation (Form 3), N=4
[3] = both sexes, oral, 30 mg/kg, Median, NG 30 mg/kg, First Formulation (Form 1), N=4
[4] = both sexes, oral, 30 mg/kg, Median, NG 30 mg/kg, Second Formulation (Form 3), N=4
[5] = intravenous, 2 mg/kg, Mean, dose column 2 mg/kg (title 30 mg/kg), Third Formulation (Form 4), N=4
[6] = intravenous, 2 mg/kg, dose column 2 mg/kg (title 30 mg/kg), Third Formulation (Form 4), individual animals
[7] = other: sublingual, 5 mg/kg, Mean, SL, dose column 5 mg/kg (title 30 mg/kg), Fourth Formulation (Form 2), N=4
[8] = other: sublingual, 5 mg/kg, Median, SL, dose column 5 mg/kg (title 30 mg/kg), Fourth Formulation (Form 2), N=4

A concentration at 0 h [1] of 0 ng/mL, a concentration at 0.25 h [1] of 4.31 ng/mL and a concentration at 0.5 h [1] of 5.9 ng/mL were found for `CCCCNc1cc(C(=O)N(Cc2ccccc2)Cc2ccccc2)cc(S(N)(=O)=O)c1Oc1ccccc1` [Bumetanide Dibenzylamide, N, N-dibenzyl 3-aminosulfonyl-5-butylamino-4-phenoxybenzamide] in this work. The concentration at 1 h (both sexes, oral, 30 mg/kg, Mean, NG 30 mg/kg, First Formulation (Form 1), 1.00 h, N=4) was 13.2 ng/mL, the concentration at 2 h (both sexes, oral, 30 mg/kg, Mean, NG 30 mg/kg, First Formulation (Form 1), 2.00 h, N=4) was 62.6 ng/mL and the concentration at 4 h (both sexes, oral, 30 mg/kg, Mean, NG 30 mg/kg, First Formulation (Form 1), 4.00 h, N=4) was 66.8 ng/mL. For the same molecule, the concentration at 8 h (both sexes, oral, 30 mg/kg, Mean, NG 30 mg/kg, First Formulation (Form 1), 8.00 h, N=4) was 44.9 ng/mL, the concentration at 24 h (both sexes, oral, 30 mg/kg, Mean, NG 30 mg/kg, First Formulation (Form 1), 24.00 h, N=4) was 8.59 ng/mL and the concentration at 32 h (both sexes, oral, 30 mg/kg, Mean, NG 30 mg/kg, First Formulation (Form 1), 32.00 h, N=4) was 4.51 ng/mL. It also gave a concentration at 0 h [2] of 0 ng/mL, a concentration at 0.25 h [2] of 0.283 ng/mL and a concentration at 0.5 h [2] of 2.85 ng/mL. The concentration at 1 h (both sexes, oral, 30 mg/kg, Mean, NG 30 mg/kg, Second Formulation (Form 3), 1.00 h, N=4) was 11.5 ng/mL, the concentration at 2 h (both sexes, oral, 30 mg/kg, Mean, NG 30 mg/kg, Second Formulation (Form 3), 2.00 h, N=4) was 54.1 ng/mL and the concentration at 4 h (both sexes, oral, 30 mg/kg, Mean, NG 30 mg/kg, Second Formulation (Form 3), 4.00 h, N=4) was 231 ng/mL. For the same molecule, the concentration at 8 h (both sexes, oral, 30 mg/kg, Mean, NG 30 mg/kg, Second Formulation (Form 3), 8.00 h, N=4) was 590 ng/mL, the concentration at 24 h (both sexes, oral, 30 mg/kg, Mean, NG 30 mg/kg, Second Formulation (Form 3), 24.00 h, N=4) was 13.6 ng/mL and the concentration at 32 h (both sexes, oral, 30 mg/kg, Mean, NG 30 mg/kg, Second Formulation (Form 3), 32.00 h, N=4) was 2.94 ng/mL. For the same molecule, the concentration at 0 h [3] was 0 ng/mL, the concentration at 0.25 h [3] was 0.962 ng/mL and the concentration at 0.5 h [3] was 2.82 ng/mL. The concentration at 1 h (both sexes, oral, 30 mg/kg, Median, NG 30 mg/kg, First Formulation (Form 1), 1.00 h, N=4) was 10.1 ng/mL, the concentration at 2 h (both sexes, oral, 30 mg/kg, Median, NG 30 mg/kg, First Formulation (Form 1), 2.00 h, N=4) was 42.6 ng/mL and the concentration at 4 h (both sexes, oral, 30 mg/kg, Median, NG 30 mg/kg, First Formulation (Form 1), 4.00 h, N=4) was 37.6 ng/mL. It also gave a concentration at 8 h (both sexes, oral, 30 mg/kg, Median, NG 30 mg/kg, First Formulation (Form 1), 8.00 h, N=4) of 31.3 ng/mL, a concentration at 24 h (both sexes, oral, 30 mg/kg, Median, NG 30 mg/kg, First Formulation (Form 1), 24.00 h, N=4) of 5.38 ng/mL and a concentration at 32 h (both sexes, oral, 30 mg/kg, Median, NG 30 mg/kg, First Formulation (Form 1), 32.00 h, N=4) of 3.75 ng/mL. For the same molecule, the concentration at 0 h [4] was 0 ng/mL, the concentration at 0.25 h [4] was 0.256 ng/mL and the concentration at 0.5 h [4] was 2.44 ng/mL. For the same molecule, the concentration at 1 h (both sexes, oral, 30 mg/kg, Median, NG 30 mg/kg, Second Formulation (Form 3), 1.00 h, N=4) was 9.43 ng/mL, the concentration at 2 h (both sexes, oral, 30 mg/kg, Median, NG 30 mg/kg, Second Formulation (Form 3), 2.00 h, N=4) was 58.6 ng/mL and the concentration at 4 h (both sexes, oral, 30 mg/kg, Median, NG 30 mg/kg, Second Formulation (Form 3), 4.00 h, N=4) was 194 ng/mL. For the same molecule, the concentration at 8 h (both sexes, oral, 30 mg/kg, Median, NG 30 mg/kg, Second Formulation (Form 3), 8.00 h, N=4) was 566 ng/mL, the concentration at 24 h (both sexes, oral, 30 mg/kg, Median, NG 30 mg/kg, Second Formulation (Form 3), 24.00 h, N=4) was 10 ng/mL and the concentration at 32 h (both sexes, oral, 30 mg/kg, Median, NG 30 mg/kg, Second Formulation (Form 3), 32.00 h, N=4) was 1.86 ng/mL. It also gave a concentration at 0 h (both sexes, oral, 30 mg/kg, NG 30 mg/kg, First Formulation (Form 1), individual animals) of 0 ng/mL, a concentration at 0 h (both sexes, oral, 30 mg/kg, NG 30 mg/kg, Second Formulation (Form 3), individual animals) of 0 ng/mL and a concentration at 8 h (both sexes, oral, 30 mg/kg, NG 30 mg/kg, Second Formulation (Form 3), 8.00 h, individual animals) of 442 ng/mL. It also gave a concentration at 0.08 h [5] of 1440 ng/mL, a concentration at 0.5 h [5] of 664 ng/mL and a concentration at 1 h (intravenous, 2 mg/kg, Mean, dose column 2 mg/kg (title 30 mg/kg), Third Formulation (Form 4), 1.00 h, N=4) of 483 ng/mL. For the same molecule, the concentration at 2 h (intravenous, 2 mg/kg, Mean, dose column 2 mg/kg (title 30 mg/kg), Third Formulation (Form 4), 2.00 h, N=4) was 285 ng/mL, the concentration at 4 h (intravenous, 2 mg/kg, Mean, dose column 2 mg/kg (title 30 mg/kg), Third Formulation (Form 4), 4.00 h, N=4) was 114 ng/mL and the concentration at 8 h (intravenous, 2 mg/kg, Mean, dose column 2 mg/kg (title 30 mg/kg), Third Formulation (Form 4), 8.00 h, N=4) was 30.7 ng/mL. For the same molecule, the concentration at 24 h (intravenous, 2 mg/kg, Mean, dose column 2 mg/kg (title 30 mg/kg), Third Formulation (Form 4), 24.00 h, N=4) was 3.57 ng/mL, the concentration at 32 h (intravenous, 2 mg/kg, Mean, dose column 2 mg/kg (title 30 mg/kg), Third Formulation (Form 4), 32.00 h, N=4) was 1.48 ng/mL and the concentration at 0.08 h [6] was 1860 ng/mL. For the same molecule, the concentration at 0.5 h [6] was 717 ng/mL, the concentration at 1 h (intravenous, 2 mg/kg, dose column 2 mg/kg (title 30 mg/kg), Third Formulation (Form 4), 1.00 h, individual animals) was 538 ng/mL and the concentration at 2 h (intravenous, 2 mg/kg, dose column 2 mg/kg (title 30 mg/kg), Third Formulation (Form 4), 2.00 h, individual animals) was 332 ng/mL. It also gave a concentration at 4 h (intravenous, 2 mg/kg, dose column 2 mg/kg (title 30 mg/kg), Third Formulation (Form 4), 4.00 h, individual animals) of 149 ng/mL, a concentration at 0 h [7] of 0 ng/mL and a concentration at 0.25 h [7] of 0 ng/mL. It also gave a concentration at 0.5 h [7] of 0 ng/mL, a concentration at 1 h (other: sublingual, 5 mg/kg, Mean, SL, dose column 5 mg/kg (title 30 mg/kg), Fourth Formulation (Form 2), 1.0 h, N=4) of 0 ng/mL and a concentration at 2 h (other: sublingual, 5 mg/kg, Mean, SL, dose column 5 mg/kg (title 30 mg/kg), Fourth Formulation (Form 2), 2.0 h, N=4) of 0.155 ng/mL. For the same molecule, the concentration at 4 h (other: sublingual, 5 mg/kg, Mean, SL, dose column 5 mg/kg (title 30 mg/kg), Fourth Formulation (Form 2), 4.0 h, N=4) was 0.114 ng/mL, the concentration at 8 h (other: sublingual, 5 mg/kg, Mean, SL, dose column 5 mg/kg (title 30 mg/kg), Fourth Formulation (Form 2), 8.0 h, N=4) was 0.41 ng/mL and the concentration at 24 h (other: sublingual, 5 mg/kg, Mean, SL, dose column 5 mg/kg (title 30 mg/kg), Fourth Formulation (Form 2), 24.0 h, N=4) was 0.248 ng/mL. For the same molecule, the concentration at 32 h (other: sublingual, 5 mg/kg, Mean, SL, dose column 5 mg/kg (title 30 mg/kg), Fourth Formulation (Form 2), 32.0 h, N=4) was 0.0803 ng/mL, the concentration at 0 h [8] was 0 ng/mL and the concentration at 0.25 h [8] was 0 ng/mL. For the same molecule, the concentration at 0.5 h [8] was 0 ng/mL and the concentration at 1 h (other: sublingual, 5 mg/kg, Median, SL, dose column 5 mg/kg (title 30 mg/kg), Fourth Formulation (Form 2), 1.0 h, N=4) was 0 ng/mL.
